1 molecule from patent US20100087534A1, “Use of a Photosensitizing Agent in the Treatment or Prevention of an Inflammation-Associated Disorder in the Gastrointestinal Tract of a Mammal” (priority 2005, published 2010) can be followed below.

Assay [1] relates to SCID mice with TH1-mediated Crohn-like colitis after transfer of CD4+CD45RBhigh T-cells. Kind of assay: Endoscopic index of colitis severity (EICS) after low dose PDT in transfer colitis (Example 2). It counts as in vivo. From the text:
Since in example 1 only 55% of the mice developed colitis, Applicants have injected 4×10^5 cells CD4+CD45RB^high intravenously into 9.5 weeks old SCID mice in the following second set of SCID mice.
Evolution of colitis in SCID mice was monitored every week by colonoscopic investigation after induction. Mice with moderately inflamed colons [endoscopic index of colitis severity (EICS) index 4-8] or marked inflamed colons (EICS 9-13) were randomly assigned to either a <<low dose>> PDT group or no treatment group (disease control group). Unmanipulated age-matched SCID mice served as negative controls.
(§1) PDT was performed with a photosensitizing agent (δ-ALA) dose of 15 mg/kg, administered 3 hours before the illumination with the energy dose of 10 J/cm^2 per gastrointestinal tract tissue.
The illumination time was 100 s, the wavelength 635 nm.
After completing the experiments with 15 mg/kg δ-ALA and 10 J/cm^2, the Applicants evaluated whether an energy illumination energy of 20 or 2 J/cm^2 would provide an equivalent or better effect on colitis. Furthermore, the Applicants sought to determine whether PDT treatment could be repeated at short term and whether this re-treatment would have a beneficial effect on colitis too. To this end, the Applicants performed another set of experiment with marked inflamed mice in which half of the PDT treated mice (15 mg/kg S-ALA and 10 J/cm^2) were subjected to a second identical low dose PDT treatment at the time of the re-apparition of colitis symptoms, namely one week after the first PDT treatment.
(§2) Mice were monitored by colonoscopy at day 3 and weeks 1, 2, 3 and 4 post PDT treatment. In addition to parameters investigated in example 1, CD4 immunostaining and apoptosis detection were performed.
All statistical analyses were performed using the Prism version 4.0c software from GraphPad Software (San Diego, Calif.). The unpaired two-tail Mann-Whitney test was usually applied, unless the numbers of mice in test groups were too small to perform this test (<5 mice in both test groups) and the unpaired two-tail t test was thus applied. Significance limit was set at a 2-tailed P value≦0.05.

Assay [2] has as its system CD4+ cells in the colonic mucosa. Kind of assay: Anti-CD4 immunostaining of treated colonic mucosa. It counts as in vivo, SCID mice. Conditions: low dose PDT, 3 days after PDT, compared to DC mice. Here is the method: as §1, §2
For anti-CD4 immunostaining, frozen sections were extensively dried, fixed with 100% acetone at 4° C. and rehydrated in PBS. Sections were then blocked for 20 minutes with a PBS solution containing 0.1% BSA (Sigma-Aldrich Inc., St-Louis, USA) and 0.5% NMS. CD4 detection was performed by incubation of the sections for 1 hour with a cell culture supernatant originating from an hybridoma secreting rat anti-mouse CD4 (clone H129.19). After washing with PBS, an Alexa Fluor 488-conjugated goat anti-rat IgG at a final concentration of 5 ng/ml in PBS 0.1% BSA, 1% NMS was used as secondary antibody and incubated for 45 minutes before two last PBS washings. All incubations were done at room temperature unless specified otherwise.

Regarding `NCC(=O)CCC(=O)O` [δ-ALA, 5-aminolevulinic acid], the EICS in assay [1] (marked inflamed mice (mean EICS 10.4±0.2 before), 15 mg/kg δ-ALA, 10 J/cm^2, 3 days after PDT, disease control 10.7±0.6, P<0.0001) is 7.3±0.3; in assay [1] (marked inflamed mice, 15 mg/kg δ-ALA, 2 J/cm^2, 3 days after PDT, disease control 10.7±0.6, P=0.0271), 8.4±0.5; in assay [1] (marked inflamed mice, one single PDT treatment, time point 1 week after second PDT of comparison group), 9.8±0.5; in assay [1] (marked inflamed mice, one single PDT treatment, time point 2 weeks after second PDT of comparison group), 9.8±0.6; in assay [1] (marked inflamed mice, two PDT treatments (15 mg/kg, 10 J/cm^2) one week apart, 1 week after second PDT) it was 7.3±0.9; in assay [1] (marked inflamed mice, two PDT treatments one week apart, 2 weeks after second PDT), 7.33±0.3. The “EICS versus disease control group” value in assay [1] (marked inflamed mice, 15 mg/kg δ-ALA, 10 J/cm^2, up to 4 weeks after PDT) is given as “remained significantly lower than the one of the disease control group mice”; in assay [1] (moderately inflamed mice, since week 2 post PDT), “appeared no more significantly different from the one of the disease control group”. In addition, the “effect on colitis (EICS) versus disease control group” value in assay [1] (marked inflamed mice, 15 mg/kg δ-ALA, 20 J/cm^2, any time point) is “did not induce any significant beneficial effect”. Moreover, the “number of CD4+ cells in the treated colonic mucosa” value in assay [2] is “obvious diminution in the number of CD4^+ cells”.
